Source: patent publication US20140343097A1, “5-(2-1-HYDROXYETHYL)-8-HYDROXYQUINOLIN-2(1H)-ONE FOR THE TREATMENT OF LUNG FUNCTION” (ALMIRALL, S.A., priority 2009, published 2014)

System: men with mild to moderate persistent asthma (lung function, FEV1)
Assay: Clinical Phase II cross-over study: FEV1 by spirometry after single inhaled doses in asthma patients
Format: in vivo, human
Details: for Peak FEV1 / Peak FEV1 increase over baseline / Peak FEV1 increase over placebo / Trough FEV1 / Trough FEV1 increase over baseline / Trough FEV1 increase over placebo: average, compound single dose 25 mcg, salmeterol 50 mcg at 0 and 12 hours; for Peak FEV1: inhalation by dry powder inhaler; for Peak FEV1 increase over baseline / Peak FEV1 increase over placebo / Trough FEV1 / Trough FEV1 increase over baseline / Trough FEV1 increase over placebo: inhalation
Source text: Clinical Phase II study: A randomised double-blind, double-dummy, placebo and active comparator-controlled, cross-over trial assesses the activity, safety, tolerability and pharmacokinetics of single doses of 5-(2-{[6-(2,2-difluoro-2-phenylethoxy)hexyl]amino}-1-(R)-hydroxyethyl)-8-hydroxyquinolin-2(1H)-one heminapadisylate by inhalation in asthma patients.
Methods: Men with a diagnosis of mild to moderate persistent asthma, as defined by the 2006 GINA guideline, for at least 6 months prior to screening and with a FEV1 61-85% of the predicted normal values (according to Quanjer et al. 1993) were randomised to treatment sequences comprising a single-dose administration of 5-(2-{[6-(2,2-difluoro-2-phenylethoxy)hexyl]amino}-1-(R)-hydroxyethyl)-8-hydroxyquinolin-2(1H)-one heminapadisylate (at a metered nominal dose of 25 micrograms in the Cyclohaler® device), two administrations (at time points 0 and 12 hours) of Salmeterol (at a metered nominal dose of 50 micrograms in the Cyclohaler® device) and placebo administered all of them by means of a dry powder inhaler. Lung function measurements included (by spirometry) FEV1, PEF, FVC, FEF25-75, and (by body plethysmography) sGaw and Raw.
Results: 25 males (aged 18 to 70) took part in the study.

[1] = 25 micrograms single inhaled dose

| SMILES | average peak and trough FEV1 compared with placebo and with salmeterol [1] | increase in average trough FEV1 compared to salmeterol (two doses) [1] | Peak FEV1 [L] | Peak FEV1 increase over baseline [mL] | Peak FEV1 increase over placebo [mL] | Trough FEV1 [L] | Trough FEV1 increase over baseline [mL] | Trough FEV1 increase over placebo [mL] | FEV1 values compared with salmeterol (single dose 25 micrograms) | bronchodilation: size, duration and onset (single dose 25 micrograms) |
| --- | --- | --- | --- | --- | --- | --- | --- | --- | --- | --- |
| O=c1ccc2c([C@@H](O)CNCCCCCCOCC(F)(F)c3ccccc3)ccc(O)c2[nH]1 [5-(2-{[6-(2,2-difluoro-2-phenylethoxy)hexyl]amino}-1-(R)-hydroxyethyl)-8-hydroxyquinolin-2(1H)-one] | clearly increased | statistically significant | 3.819 | 843 | 618 | 3.642 | 666 | 718 | significantly higher than those produced by salmeterol | surprisingly large, long-lasting bronchodilation, with a fast onset |
| OCc1cc(C(O)CNCCCCCCOCCCCc2ccccc2)ccc1O (stereo not shown) [Salmeterol, 2-(hydroxymethyl)-4-{1-hydroxy-2-[6-(4-phenylbutoxy)hexylamino]ethyl}phenol, reference compound] | – | – | 3.521 | 667 | 442 | 3.209 | 355 | 285 | – | – |
